The numbers were not newly measured in patent US6586576B2, “Preparation method of azithromycin hydrates” (Teva Pharmaceutical Industries LTD, priority 2000, dated 2003), which cites them from elsewhere.

For series [1] the following is noted: crystal/hydrate form, per EP 298 650 and CN 1,093,370.

Like-named read-outs stand apart in the source and are kept apart here.

As to `CC[C@H]1OC(=O)[C@H](C)[C@@H](O[C@H]2C[C@@](C)(OC)[C@@H](O)[C@H](C)O2)[C@H](C)[C@@H](O[C@@H]2O[C@H](C)C[C@H](N(C)C)[C@H]2O)[C@](C)(O)C[C@@H](C)CN(C)[C@H](C)[C@@H](O)[C@]1(C)O` [azithromycin dihydrate], the hygroscopic nature entry in series [1] (dihydrate) is reported as “less hygroscopic than the previously known azithromycin monohydrate”.

In the case of `CC[C@H]1OC(=O)[C@H](C)[C@@H](O[C@H]2C[C@@](C)(OC)[C@@H](O)[C@H](C)O2)[C@H](C)[C@@H](O[C@@H]2O[C@H](C)C[C@H](N(C)C)[C@H]2O)[C@](C)(O)C[C@@H](C)CN(C)[C@H](C)[C@@H](O)[C@]1(C)O` [azithromycin monohydrate], in series [1] (monohydrate), the hygroscopic nature result is on record as “hygroscopic”.

`CC[C@H]1OC(=O)C(C)C(OC2CC(C)(OC)C(O)C(C)O2)C(C)C(OC2OC(C)CC(N(C)C)C2O)C(C)(O)CC(C)CN(C)C(C)C(O)C1(C)O` (stereo partly drawn) [azithromycin, 9-deoxo-9a-aza-9a-methyl-9a-homoerythromycin A]: the “stability under acidic conditions” value is on record as “not stable”.
